Patent US20240174727A1, “LONG-ACTING NATRIURETIC PEPTIDES AND USES THEREOF” (Eli Lilly and Company, priority 2022, published 2024)
Read-outs that look alike come from different tables or passages of the source. Numbered stars: 1 amine (or outer) side, 2 acyl side, 3 side chain; on linkers, the order of the positions; unused ones are H or OH. Bridge positions count the residues as written; N and C are the ends. Square brackets hold non-standard residues; d marks the D form. Peptide text beside a SMILES is read from it. * marks the point of attachment. PEG24 = NCCOCCOCCOCCOCCOCCOCCOCCOCCOCCOCCOCCOCCOCCOCCOCCOCCOCCOCCOCCOCCOCCOCCOCCOCCC(=O)O; C20 diacid = O=C(O)CCCCCCCCCCCCCCCCCCC(=O)*; γGlu = O=C(O)[C@H](CCC(=O)[*:2])N[*:1]; 4Pal = N[C@@H](Cc1ccncc1)C(=O)O; Aib = CC(C)(N)C(=O)O; CH2 = C([*:1])[*:2]

Biological target: T1, human NPRA (Homo sapiens, UniProt P16066)
T1 construct: Full-Length cDNA Cloning and Generation of Cell Lines Overexpressing Natriuretic Peptide Receptors (NPRs); expressed in transfected cells; host or cells: Jump-in T-Rex HEK293 cells, pJTI R4 CMV-TO MCS pA vector, tetracycline induction
T1 sequence (P16066 33-1061): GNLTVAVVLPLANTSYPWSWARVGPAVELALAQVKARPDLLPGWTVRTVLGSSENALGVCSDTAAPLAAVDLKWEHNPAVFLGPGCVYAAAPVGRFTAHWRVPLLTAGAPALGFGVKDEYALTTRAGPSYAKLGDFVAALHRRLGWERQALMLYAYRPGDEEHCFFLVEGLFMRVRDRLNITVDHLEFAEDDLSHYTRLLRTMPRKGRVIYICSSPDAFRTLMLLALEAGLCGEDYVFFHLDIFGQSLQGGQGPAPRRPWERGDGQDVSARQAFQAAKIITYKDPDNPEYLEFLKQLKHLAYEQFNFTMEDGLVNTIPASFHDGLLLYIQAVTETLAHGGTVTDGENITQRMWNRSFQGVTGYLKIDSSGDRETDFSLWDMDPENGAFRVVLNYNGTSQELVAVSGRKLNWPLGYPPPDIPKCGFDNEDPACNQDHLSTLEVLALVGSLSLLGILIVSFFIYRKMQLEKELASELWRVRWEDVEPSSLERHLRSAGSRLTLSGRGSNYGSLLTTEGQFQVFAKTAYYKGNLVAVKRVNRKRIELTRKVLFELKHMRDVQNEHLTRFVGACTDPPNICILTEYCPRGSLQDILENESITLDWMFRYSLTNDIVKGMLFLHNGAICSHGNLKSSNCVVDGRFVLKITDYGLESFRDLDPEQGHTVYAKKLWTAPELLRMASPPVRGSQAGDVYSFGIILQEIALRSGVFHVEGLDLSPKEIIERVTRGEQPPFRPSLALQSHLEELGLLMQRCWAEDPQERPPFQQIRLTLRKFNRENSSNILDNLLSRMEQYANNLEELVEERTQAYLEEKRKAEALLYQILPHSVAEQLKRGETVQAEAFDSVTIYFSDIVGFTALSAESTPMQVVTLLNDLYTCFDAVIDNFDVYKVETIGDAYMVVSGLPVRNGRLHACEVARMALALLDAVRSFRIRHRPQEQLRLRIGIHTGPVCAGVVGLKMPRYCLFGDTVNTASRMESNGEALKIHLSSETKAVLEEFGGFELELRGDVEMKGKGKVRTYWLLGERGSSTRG
Assay: Human NPRA cGMP activity assay (HTRF) in HEK293 cells overexpressing NPRA
Format: cell-based
Procedure: All sequences were verified by full-length sequencing performed by ACGT DNA Sequencing Services (Wheeling, IL). The target cDNA was cloned into pJTI R4 CMV-TO MCS pA vector and then co-transfected with pJT1R4 Int vector into Jump-in™ T-Rex™ HEK293 cells for mammalian inducible expression using Jump-in™ T-Rex™ HEK293 kit and Lipofectamine LTX and Plus Reagent following manufacturer's protocols, as briefly described below.
Jump-in™ T-Rex™ HEK293 cells were plated in a BioCOAT® poly-D-lysine coated 6-well plate (Becton Dickinson, cat no. 354413) at 1 million cells/well in 2 mL culture medium and incubated for 18 h at 37° C. and 5% CO2 to 50-70% confluence. A cDNA mix was made in a 50 mL tube by adding 1.5 μg target cDNA, 1.5 μg pJT1R4 Int vector, 3 μL Plus Reagent, and 300 μL Opti-MEM I sequentially into the tube. A reagent mix was made in a separate 50 mL tube by adding 7.5 μL Lipofectamine LTX into 300 μL Opti-MEM I. The mixtures were incubated for 5 min at room temperature. The cDNA mix was then transferred into the reagent mix, mixed well, and incubated for additional 30 min at room temperature. A 500 μL of cDNA/Lipofectamine complex was then transferred to the wells of the cell plate in which the culture medium was changed to 2 mL of transfection medium containing DMEM with 4.5 g/L D-glucose supplemented with 10% FBS-HI and 20 mM HEPES. Transfected cells were cultured for 48 h in an incubator at 37° C. and 5% CO2. A subclone or pool from each overexpressing cell line was maintained in culture medium with the addition of 2 mg/mL G418 sulfate for the clone selection based on its built-in resistance to G418 sulfate for at least 3 weeks with medium changed every 2-3 days.
NPRs were overexpressed in T-Rex™ HEK293 cells following the induction with 300 ng/mL tetracycline in culture medium for 48 h. Induced cell lines in an exponential growth phase were treated with 0.05% trypsin-EDTA for a few seconds at room temperature, harvested in cell medium containing FBS to neutralize the trypsin, counted, and cryopreserved at the density of 2 million cells/mL in cell preservation solution containing FBS-HI with 5% DMSO. Cryopreserved cells were stored at −80° C. for a few days prior to transferring to a liquid nitrogen tank. Induced cell lines were then used for suspension assays to measure the activity of polypeptides to stimulate cGMP production in cGMP assays or for the preparation of cell membranes to measure the binding activity of polypeptides in competitive radioligand binding assays, as described below.
Test polypeptides were added starting at 10 μM concentration and at 10-fold decreasing concentrations to obtain 8-point concentration-response curves (i.e., 10 μM to 1 pM). The quantity of cGMP generated was detected using HTRF® technology and normalized to maximum amount produced by 100 nM amidated rat ANP and the minimum amount produced by assay buffer. Detailed steps are outlined below.
Stock solutions of test polypeptides (2 mM) dissolved in DMSO were first diluted 100-fold in assay buffer containing HBSS with Ca^2+ and Mg^2+, 5 mM HEPES, 0.5 mM IBMX, and 0.1% BSA or 0.1% casein (pH 7.4). The polypeptides were further serially diluted in 1:10 dilution steps in assay buffer containing 0.1% BSA or 0.1% casein to generate 8-point 2× working stock solutions ranging from 20 μM to […].
A 10 μL cell suspension containing 4000 cells was plated in Costar® half-area white opaque 96-well plates (Corning, cat no. 3693). Then 10 μL of assay buffer (basal activity), 200 nM of amidated rat ANP (maximum activity) or 2× working stock solutions of test polypeptides were transferred into the plate. Final concentration of DMSO in each well was 0.5%. The plate was shaken for 15 sec and then incubated for 40 min at room temperature.
The cGMP generated was measured using cGMP kit following the manufacturer's directions, as described below.

[1] = assay buffer with 0.1% BSA, read-out: cGMP Assay (EC50, pM) w/BSA hNPRA

CC[C@H](C)[C@@H]1NC(=O)[C@H](CCCNC(=N)N)NC(=O)[C@H](CC(=O)O)NC(=O)[C@H]([C@@H](C)CC)NC(=O)[C@H](CCCNC(=N)N)NC(=O)CNC(=O)CNC(=O)[C@H](Cc2ccccc2)NC(=O)[C@@H](NC(=O)[C@H](CO)NC(=O)[C@H](CO)NC(=O)[C@H](CCCNC(=N)N)NC(=O)[C@H](CCCNC(=N)N)NC(=O)[C@H](CC(C)C)NC(=O)[C@H](CO)NC(=O)CNC(=O)[C@H](CCCCN)NC(=O)[C@H](CCC(=O)O)NC(=O)[C@H](CCCCN)NC(=O)[C@H](CCC(=O)O)NC(=O)[C@H](CCCCN)NC(=O)[C@H](CCC(=O)O)NC(=O)CC[C@H](NC(=O)CCCCCCCCCCCCCCCCCCC(=O)O)C(=O)O)CSSC[C@@H](C(=O)N[C@@H](CC(N)=O)C(=O)N[C@@H](CO)C(=O)N[C@@H](Cc2ccccc2)C(=O)N[C@@H](CCCNC(=N)N)C(=O)N[C@@H](Cc2ccncc2)C(N)=O)NC(=O)CNC(=O)[C@H](CC(C)C)NC(=O)CNC(=O)[C@H](CO)NC(=O)[C@H](CCC(N)=O)NC(=O)[C@H](C)NC(=O)CNC1=O [Example 9] ({C20 diacid-γGlu}-EKEKEKGSLRRSSCFGGRIDRIGAQSGLGCNSFR[4Pal]-NH2; disulfide 14-30)
EC50 [1]: 101000 pM

{C20 diacid-γGlu}-EKEKEKG[PEG24]S[4Pal]RRSSCFGGRIDRIGHQSGLGCPSFRHGGPPS[Aib]KPPPK-NH2 (linker 15-31 via CH2) [Example 84]
EC50 (assay buffer with 0.1% casein, read-out: cGMP Assay (EC50, pM) w/Casein hNPRA): 1010 pM

CC[C@H](C)[C@@H]1NC(=O)[C@H](CCCNC(=N)N)NC(=O)[C@H](CC(=O)O)NC(=O)[C@H]([C@@H](C)CC)NC(=O)[C@H](CCCNC(=N)N)NC(=O)[C@H](CCCCN)NC(=O)CNC(=O)[C@H](Cc2ccccc2)NC(=O)[C@@H](NC(=O)[C@H](CO)NC(=O)[C@H](CO)NC(=O)[C@H](CCCNC(=N)N)NC(=O)[C@@H]2CCCN2C(=O)[C@H](CCCCN)NC(=O)[C@H](CCC(=O)O)NC(=O)CNC(=O)[C@H](CCCCN)NC(=O)[C@H](CCC(=O)O)NC(=O)[C@H](CCCCN)NC(=O)[C@H](CCC(=O)O)NC(=O)[C@H](CCCCN)NC(=O)[C@H](CCC(=O)O)NC(=O)CC[C@H](NC(=O)CCCCCCCCCCCCCCCCCCC(=O)O)C(=O)O)CSCSC[C@@H](C(=O)N2CCC[C@H]2C(=O)N[C@@H](CO)C(=O)N[C@@H](Cc2ccccc2)C(=O)N[C@@H](CCCNC(=N)N)C(=O)N[C@@H](Cc2c[nH]cn2)C(=O)NCC(=O)N[C@@H](CO)C(=O)N2CCC[C@H]2C(=O)N[C@@H](CO)C(=O)N[C@@H](CO)C(=O)NCC(=O)N[C@@H](C)C(=O)N2CCC[C@H]2C(=O)N2CCC[C@H]2C(=O)N2CCC[C@H]2C(=O)N[C@@H](CO)C(N)=O)NC(=O)CNC(=O)[C@H](CC(C)C)NC(=O)CNC(=O)[C@H](CO)NC(=O)[C@H](Cc2ccc(O)cc2)NC(=O)[C@H](CCCN)NC(=O)CNC1=O [Example 135]
EC50 (cGMP Assay (EC50, pM) w/BSA hNPRA, assay buffer with 0.1% BSA): 104000 pM | EC50 (cGMP Assay (EC50, pM) w/Casein hNPRA, assay buffer with 0.1% casein): 497 pM

CC[C@H](C)[C@@H]1NC(=O)[C@H](CCCNC(=N)N)NC(=O)[C@H](CC(=O)O)NC(=O)[C@H]([C@@H](C)CC)NC(=O)[C@H](CCCNC(=N)N)NC(=O)CNC(=O)[C@H](Cc2ccncc2)NC(=O)[C@H](Cc2ccccc2)NC(=O)[C@@H](NC(=O)[C@H](CO)NC(=O)[C@H](CO)NC(=O)[C@H](CCCNC(=N)N)NC(=O)[C@H](CCCNC(=N)N)NC(=O)[C@H](CC(C)C)NC(=O)[C@H](CO)NC(=O)CNC(=O)[C@H](CCCCN)NC(=O)[C@H](CCC(=O)O)NC(=O)[C@H](CCCCN)NC(=O)[C@H](CCC(=O)O)NC(=O)[C@H](CCCCN)NC(=O)[C@H](CCC(=O)O)NC(=O)CC[C@H](NC(=O)CCCCCCCCCCCCCCCCCCC(=O)O)C(=O)O)CSSC[C@@H](C(=O)N[C@@H](CC(N)=O)C(=O)N[C@@H](CO)C(=O)N[C@@H](Cc2ccccc2)C(=O)N[C@@H](CCCNC(=N)N)C(=O)N[C@@H](Cc2ccc(O)cc2)C(N)=O)NC(=O)CNC(=O)[C@H](CC(C)C)NC(=O)CNC(=O)[C@H](CO)NC(=O)[C@H](CCC(N)=O)NC(=O)[C@H](C)NC(=O)CNC1=O [Example 13] ({C20 diacid-γGlu}-EKEKEKGSLRRSSCF[4Pal]GRIDRIGAQSGLGCNSFRY-NH2; disulfide 14-30)
EC50 [1]: 145000 pM

{C20 diacid-γGlu}-EKEKEKGS[4Pal]RRSSCFGGRIDRIGHQSGLGCPSFRHGGPPS[Aib]KPPPK-NH2 (linker 14-30 via CH2) [Example 68]
EC50 [1]: 96800 pM
